Measured values as given in PubChem BioAssay (NCI).
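In this assay, cells in 96-well plates receive the compound at five concentrations for 48 hours. Endpoints are linearly interpolated between the surrounding concentrations. TGI: total growth inhibition.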

Experiments:
Test in all cases: inhibition of tumour cell growth, NCI panel, 48 h
786-0 renal = system: 786-0 renal
A498 renal = system: A498 renal
A549 NSCLC = system: A549 NSCLC
ACHN renal = system: ACHN renal
CAKI-1 renal = system: CAKI-1 renal
CCRF-CEM leukemia = system: CCRF-CEM leukemia
COLO 205 colon = system: COLO 205 colon
DLD-1 colon = system: DLD-1 colon
DMS 114 small cell lung = system: DMS 114 small cell lung
EKVX NSCLC = system: EKVX NSCLC
HCC-2998 colon = system: HCC-2998 colon
HCT-116 colon = system: HCT-116 colon
HCT-15 colon = system: HCT-15 colon
HL-60(TB) leukemia = system: HL-60(TB) leukemia
HOP-18 NSCLC = system: HOP-18 NSCLC
HOP-62 NSCLC = system: HOP-62 NSCLC
HOP-92 NSCLC = system: HOP-92 NSCLC
HT29 colon = system: HT29 colon
IGROV1 ovarian = system: IGROV1 ovarian
K-562 leukemia = system: K-562 leukemia
KM12 colon = system: KM12 colon
KM20L2 colon = system: KM20L2 colon
LOX IMVI melanoma = system: LOX IMVI melanoma
LXFL 529 NSCLC = system: LXFL 529 NSCLC
M14 melanoma = system: M14 melanoma
M19-MEL melanoma = system: M19-MEL melanoma
MALME-3M melanoma = system: MALME-3M melanoma
MOLT-4 leukemia = system: MOLT-4 leukemia
NCI-H226 lung = system: NCI-H226 lung
NCI-H23 lung = system: NCI-H23 lung
NCI-H460 lung = system: NCI-H460 lung
NCI-H522 lung = system: NCI-H522 lung
OVCAR-3 ovarian = system: OVCAR-3 ovarian
OVCAR-5 ovarian = system: OVCAR-5 ovarian
OVCAR-8 ovarian = system: OVCAR-8 ovarian
RPMI-8226 leukemia = system: RPMI-8226 leukemia
RXF 393 renal = system: RXF 393 renal
SF-268 CNS = system: SF-268 CNS
SF-295 CNS = system: SF-295 CNS
SF-539 CNS = system: SF-539 CNS
SK-MEL-28 melanoma = system: SK-MEL-28 melanoma
SK-MEL-5 melanoma = system: SK-MEL-5 melanoma
SK-OV-3 ovarian = system: SK-OV-3 ovarian
SN12C renal = system: SN12C renal
SNB-19 CNS = system: SNB-19 CNS
SNB-75 CNS = system: SNB-75 CNS
SR leukemia = system: SR leukemia
SW-620 colon = system: SW-620 colon
TK-10 renal = system: TK-10 renal
U251 CNS = system: U251 CNS
UACC-257 melanoma = system: UACC-257 melanoma
UACC-62 melanoma = system: UACC-62 melanoma
UO-31 renal = system: UO-31 renal
XF 498 CNS = system: XF 498 CNS

Measured: TGI

O=C(CC1=Nc2nnc(CCCCCCCc3nnc4n3C(=O)C(CC(=O)c3ccccc3)=N4)n2C1=O)c1ccccc1
> 100 µM: all assays above
